Our source for the AC50 values is ChEMBL document CHEMBL5291721, “A preclinical secondary pharmacology resource illuminates target-adverse drug reaction associations of marketed drugs” (Nat Commun, 2023).

The target in assay [1] is T1, Muscarinic acetylcholine receptor M5 (Homo sapiens, UniProt P08912).
T1 sequence (P08912 whole entry): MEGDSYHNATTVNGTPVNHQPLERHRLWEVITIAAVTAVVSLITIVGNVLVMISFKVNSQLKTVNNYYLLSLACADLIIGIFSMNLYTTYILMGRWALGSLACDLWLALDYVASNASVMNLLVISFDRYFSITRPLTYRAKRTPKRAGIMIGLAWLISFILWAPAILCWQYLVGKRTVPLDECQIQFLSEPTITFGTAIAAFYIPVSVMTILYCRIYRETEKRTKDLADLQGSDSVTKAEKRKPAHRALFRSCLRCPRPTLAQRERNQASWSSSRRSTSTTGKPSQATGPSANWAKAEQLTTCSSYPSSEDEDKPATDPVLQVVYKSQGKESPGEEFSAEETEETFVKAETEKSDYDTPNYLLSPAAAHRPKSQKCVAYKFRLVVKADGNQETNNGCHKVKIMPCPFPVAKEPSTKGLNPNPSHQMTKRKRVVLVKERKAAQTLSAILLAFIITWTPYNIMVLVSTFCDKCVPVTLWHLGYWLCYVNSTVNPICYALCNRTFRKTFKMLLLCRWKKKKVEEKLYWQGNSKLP

The target in assay [2] is 5-hydroxytryptamine receptor 5A (Homo sapiens, UniProt P47898).
The next assay deals with T2, Androgen receptor (Rattus norvegicus, UniProt P15207).
T2 sequence (P15207 whole entry): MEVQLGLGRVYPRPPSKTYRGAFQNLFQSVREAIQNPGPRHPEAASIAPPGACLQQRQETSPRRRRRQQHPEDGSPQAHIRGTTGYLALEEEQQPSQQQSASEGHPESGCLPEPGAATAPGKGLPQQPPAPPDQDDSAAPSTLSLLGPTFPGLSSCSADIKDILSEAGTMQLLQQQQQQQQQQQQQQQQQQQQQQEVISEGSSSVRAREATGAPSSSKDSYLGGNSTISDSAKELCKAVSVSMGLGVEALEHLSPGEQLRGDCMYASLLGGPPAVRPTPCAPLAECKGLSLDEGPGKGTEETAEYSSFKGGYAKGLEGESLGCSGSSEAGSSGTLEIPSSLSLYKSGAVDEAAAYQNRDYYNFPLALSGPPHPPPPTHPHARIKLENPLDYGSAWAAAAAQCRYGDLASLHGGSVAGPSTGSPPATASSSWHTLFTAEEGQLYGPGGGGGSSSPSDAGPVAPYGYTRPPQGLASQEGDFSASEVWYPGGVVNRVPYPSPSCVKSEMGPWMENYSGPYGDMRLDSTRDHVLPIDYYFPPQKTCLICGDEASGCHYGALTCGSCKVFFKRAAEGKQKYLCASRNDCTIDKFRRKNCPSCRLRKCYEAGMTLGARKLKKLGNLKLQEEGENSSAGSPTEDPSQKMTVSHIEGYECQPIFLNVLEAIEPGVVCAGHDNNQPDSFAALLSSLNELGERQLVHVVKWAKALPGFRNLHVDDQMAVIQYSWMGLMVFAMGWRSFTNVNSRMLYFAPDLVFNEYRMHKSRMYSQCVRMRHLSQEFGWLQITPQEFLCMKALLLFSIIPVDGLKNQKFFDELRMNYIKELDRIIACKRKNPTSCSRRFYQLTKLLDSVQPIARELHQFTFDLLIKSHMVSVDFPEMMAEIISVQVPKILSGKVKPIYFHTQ

A further assay concerns the target D(1B) dopamine receptor (Homo sapiens, UniProt P21918).
The target in assay [3] is Rod cGMP-specific 3',5'-cyclic phosphodiesterase subunit alpha (Homo sapiens, UniProt P16499). Format: functional.
Assay [4] concerns the target Voltage-dependent L-type calcium channel subunit alpha-1C (Homo sapiens, UniProt Q13936). Format: functional, cell-based.
The target of assay [5] is T3, Type-2 angiotensin II receptor (Homo sapiens, UniProt P50052).
T3 sequence (P50052 whole entry): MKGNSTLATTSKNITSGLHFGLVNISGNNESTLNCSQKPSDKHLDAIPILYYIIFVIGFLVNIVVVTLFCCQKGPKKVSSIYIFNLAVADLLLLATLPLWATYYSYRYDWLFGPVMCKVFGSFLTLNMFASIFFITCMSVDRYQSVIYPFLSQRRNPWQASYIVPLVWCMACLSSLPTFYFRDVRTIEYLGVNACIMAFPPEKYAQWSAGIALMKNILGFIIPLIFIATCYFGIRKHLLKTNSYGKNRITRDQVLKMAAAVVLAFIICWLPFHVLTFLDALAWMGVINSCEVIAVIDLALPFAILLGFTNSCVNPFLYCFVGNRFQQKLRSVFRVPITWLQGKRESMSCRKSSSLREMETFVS
Format: functional.

Assay [6] deals with T4, Histamine H1 receptor (Homo sapiens, UniProt P35367). Format: functional, cell-based.
The target in assay [7] is T4, Histamine H1 receptor. Format: functional, cell-based. This is another data set of the same source.
For assay [8], the target named is Oxysterols receptor LXR-beta (Homo sapiens, UniProt P55055). Format: functional.
Assay [9] has as its target T5, Peroxisome proliferator-activated receptor alpha (Homo sapiens, UniProt Q07869).
T5 sequence (Q07869 whole entry): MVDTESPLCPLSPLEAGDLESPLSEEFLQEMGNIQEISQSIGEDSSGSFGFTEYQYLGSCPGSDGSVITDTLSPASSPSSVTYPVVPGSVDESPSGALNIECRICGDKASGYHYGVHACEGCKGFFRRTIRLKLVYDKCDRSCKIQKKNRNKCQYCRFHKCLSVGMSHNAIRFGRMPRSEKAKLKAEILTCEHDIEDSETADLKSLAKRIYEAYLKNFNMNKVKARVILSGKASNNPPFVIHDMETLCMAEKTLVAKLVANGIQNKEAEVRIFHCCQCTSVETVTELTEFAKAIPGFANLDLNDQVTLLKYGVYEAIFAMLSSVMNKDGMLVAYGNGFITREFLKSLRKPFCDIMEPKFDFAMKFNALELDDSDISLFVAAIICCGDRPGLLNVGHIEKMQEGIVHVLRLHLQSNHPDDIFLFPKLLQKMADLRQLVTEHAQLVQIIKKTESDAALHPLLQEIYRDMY
Format: functional.

In assay [10] the target is Retinoic acid receptor beta (Homo sapiens, UniProt P10826). Format: functional, cell-based.
In assay [11] the target is Retinoic acid receptor alpha (Homo sapiens, UniProt P10276). Format: functional, cell-based.
Assay [12] concerns the target Retinoic acid receptor gamma (Homo sapiens, UniProt P13631). Format: functional, cell-based.
Assay [13] deals with Oxysterols receptor LXR-alpha (Homo sapiens, UniProt Q13133). Format: functional.
Further: assay procedure not described here.

Voltage-dependent L-type calcium channel subunit alpha-1C, sequence (Q13936 whole entry): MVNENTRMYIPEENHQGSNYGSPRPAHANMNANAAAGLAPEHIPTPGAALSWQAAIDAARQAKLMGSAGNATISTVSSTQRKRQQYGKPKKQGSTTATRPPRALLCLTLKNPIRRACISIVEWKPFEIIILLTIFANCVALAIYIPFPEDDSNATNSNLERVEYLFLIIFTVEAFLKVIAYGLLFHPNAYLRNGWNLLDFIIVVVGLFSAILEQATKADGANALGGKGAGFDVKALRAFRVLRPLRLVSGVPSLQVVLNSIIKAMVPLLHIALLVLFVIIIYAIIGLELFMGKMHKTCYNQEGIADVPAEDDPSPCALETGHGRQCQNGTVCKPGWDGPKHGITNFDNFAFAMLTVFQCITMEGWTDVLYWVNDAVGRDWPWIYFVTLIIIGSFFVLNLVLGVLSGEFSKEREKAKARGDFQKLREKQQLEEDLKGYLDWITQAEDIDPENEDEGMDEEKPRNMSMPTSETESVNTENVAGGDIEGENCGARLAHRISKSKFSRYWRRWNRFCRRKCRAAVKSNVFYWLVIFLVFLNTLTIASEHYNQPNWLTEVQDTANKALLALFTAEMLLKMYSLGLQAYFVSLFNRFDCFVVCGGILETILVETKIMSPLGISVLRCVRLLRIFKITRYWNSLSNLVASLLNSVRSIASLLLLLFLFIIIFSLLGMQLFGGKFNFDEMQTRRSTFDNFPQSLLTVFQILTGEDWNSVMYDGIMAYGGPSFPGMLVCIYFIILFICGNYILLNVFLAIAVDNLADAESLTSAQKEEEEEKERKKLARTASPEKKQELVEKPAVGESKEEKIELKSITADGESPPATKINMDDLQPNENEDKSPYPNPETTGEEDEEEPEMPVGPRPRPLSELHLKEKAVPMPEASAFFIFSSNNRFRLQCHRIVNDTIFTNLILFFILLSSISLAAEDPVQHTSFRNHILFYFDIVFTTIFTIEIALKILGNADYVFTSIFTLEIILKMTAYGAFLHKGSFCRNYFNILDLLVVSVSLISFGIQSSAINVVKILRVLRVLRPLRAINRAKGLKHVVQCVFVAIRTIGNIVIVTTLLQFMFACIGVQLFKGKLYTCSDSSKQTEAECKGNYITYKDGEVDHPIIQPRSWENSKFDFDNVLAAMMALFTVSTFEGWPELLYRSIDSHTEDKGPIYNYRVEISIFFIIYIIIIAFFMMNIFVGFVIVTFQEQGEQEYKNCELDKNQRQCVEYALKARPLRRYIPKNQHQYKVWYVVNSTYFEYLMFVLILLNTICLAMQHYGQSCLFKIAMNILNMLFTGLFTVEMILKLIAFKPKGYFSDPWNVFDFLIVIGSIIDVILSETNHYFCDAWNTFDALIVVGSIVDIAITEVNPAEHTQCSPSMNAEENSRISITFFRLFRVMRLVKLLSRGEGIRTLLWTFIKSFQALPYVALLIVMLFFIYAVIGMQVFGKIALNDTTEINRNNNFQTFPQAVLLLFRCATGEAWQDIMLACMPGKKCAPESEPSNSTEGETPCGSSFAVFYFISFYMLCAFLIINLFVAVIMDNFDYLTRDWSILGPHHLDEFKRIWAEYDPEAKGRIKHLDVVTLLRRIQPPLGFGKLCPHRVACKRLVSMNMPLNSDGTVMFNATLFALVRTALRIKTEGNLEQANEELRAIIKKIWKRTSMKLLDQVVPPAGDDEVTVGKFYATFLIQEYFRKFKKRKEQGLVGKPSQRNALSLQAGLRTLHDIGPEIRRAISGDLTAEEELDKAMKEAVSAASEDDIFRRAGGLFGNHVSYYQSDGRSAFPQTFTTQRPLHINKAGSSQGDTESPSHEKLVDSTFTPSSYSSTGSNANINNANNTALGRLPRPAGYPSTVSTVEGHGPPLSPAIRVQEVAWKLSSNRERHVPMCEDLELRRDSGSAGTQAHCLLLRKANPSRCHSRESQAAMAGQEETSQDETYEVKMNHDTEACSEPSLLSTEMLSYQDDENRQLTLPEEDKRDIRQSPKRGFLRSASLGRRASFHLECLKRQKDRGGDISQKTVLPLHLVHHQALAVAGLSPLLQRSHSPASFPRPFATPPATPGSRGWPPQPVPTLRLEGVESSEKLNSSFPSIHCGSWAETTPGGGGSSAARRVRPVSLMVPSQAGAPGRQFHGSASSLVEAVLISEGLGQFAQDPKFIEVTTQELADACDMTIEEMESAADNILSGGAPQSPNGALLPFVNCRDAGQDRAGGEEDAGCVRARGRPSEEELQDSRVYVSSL
T4 sequence (P35367 whole entry): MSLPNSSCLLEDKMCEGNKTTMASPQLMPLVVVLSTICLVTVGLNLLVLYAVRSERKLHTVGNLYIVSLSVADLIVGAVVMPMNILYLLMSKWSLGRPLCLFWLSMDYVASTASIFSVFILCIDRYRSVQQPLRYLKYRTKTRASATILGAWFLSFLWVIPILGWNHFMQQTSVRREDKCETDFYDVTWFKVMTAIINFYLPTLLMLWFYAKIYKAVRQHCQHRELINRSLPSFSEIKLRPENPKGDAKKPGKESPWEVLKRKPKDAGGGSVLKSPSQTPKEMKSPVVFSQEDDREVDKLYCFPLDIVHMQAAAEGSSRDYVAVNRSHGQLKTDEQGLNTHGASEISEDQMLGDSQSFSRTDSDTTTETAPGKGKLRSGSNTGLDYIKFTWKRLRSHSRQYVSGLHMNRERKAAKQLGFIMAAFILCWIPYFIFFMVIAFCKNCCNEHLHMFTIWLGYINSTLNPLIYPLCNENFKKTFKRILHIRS
Rod cGMP-specific 3',5'-cyclic phosphodiesterase subunit alpha, sequence (P16499 whole entry): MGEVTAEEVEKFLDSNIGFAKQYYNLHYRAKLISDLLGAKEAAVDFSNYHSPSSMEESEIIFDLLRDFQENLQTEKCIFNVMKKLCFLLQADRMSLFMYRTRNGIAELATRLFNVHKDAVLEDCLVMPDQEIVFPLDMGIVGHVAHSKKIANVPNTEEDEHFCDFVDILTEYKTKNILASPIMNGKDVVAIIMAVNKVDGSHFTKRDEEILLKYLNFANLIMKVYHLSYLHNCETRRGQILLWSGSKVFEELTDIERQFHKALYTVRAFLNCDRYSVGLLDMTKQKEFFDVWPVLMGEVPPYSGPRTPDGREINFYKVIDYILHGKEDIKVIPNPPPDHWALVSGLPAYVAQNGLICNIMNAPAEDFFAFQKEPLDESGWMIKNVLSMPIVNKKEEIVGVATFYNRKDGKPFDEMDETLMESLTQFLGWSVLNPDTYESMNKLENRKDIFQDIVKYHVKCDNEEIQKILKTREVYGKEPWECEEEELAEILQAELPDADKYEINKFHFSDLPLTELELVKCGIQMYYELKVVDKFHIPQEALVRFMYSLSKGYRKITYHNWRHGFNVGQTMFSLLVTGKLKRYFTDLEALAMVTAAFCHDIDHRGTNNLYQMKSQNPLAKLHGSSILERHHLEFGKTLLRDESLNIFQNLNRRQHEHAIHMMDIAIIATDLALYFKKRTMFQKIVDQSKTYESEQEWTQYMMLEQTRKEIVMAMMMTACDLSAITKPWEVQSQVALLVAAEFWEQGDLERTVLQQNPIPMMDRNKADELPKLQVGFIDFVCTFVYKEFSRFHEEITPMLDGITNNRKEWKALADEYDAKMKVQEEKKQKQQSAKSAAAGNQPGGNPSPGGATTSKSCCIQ
5-hydroxytryptamine receptor 5A, sequence (P47898 whole entry): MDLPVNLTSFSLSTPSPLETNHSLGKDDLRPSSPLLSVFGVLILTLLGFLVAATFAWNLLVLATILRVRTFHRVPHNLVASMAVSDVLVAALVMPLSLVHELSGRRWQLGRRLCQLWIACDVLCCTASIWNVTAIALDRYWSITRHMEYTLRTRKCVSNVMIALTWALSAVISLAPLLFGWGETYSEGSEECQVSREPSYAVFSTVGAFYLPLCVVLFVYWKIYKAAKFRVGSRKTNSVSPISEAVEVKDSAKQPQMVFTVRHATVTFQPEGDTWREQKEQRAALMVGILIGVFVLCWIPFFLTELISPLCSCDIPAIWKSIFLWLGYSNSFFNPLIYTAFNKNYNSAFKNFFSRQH
D(1B) dopamine receptor, sequence (P21918 whole entry): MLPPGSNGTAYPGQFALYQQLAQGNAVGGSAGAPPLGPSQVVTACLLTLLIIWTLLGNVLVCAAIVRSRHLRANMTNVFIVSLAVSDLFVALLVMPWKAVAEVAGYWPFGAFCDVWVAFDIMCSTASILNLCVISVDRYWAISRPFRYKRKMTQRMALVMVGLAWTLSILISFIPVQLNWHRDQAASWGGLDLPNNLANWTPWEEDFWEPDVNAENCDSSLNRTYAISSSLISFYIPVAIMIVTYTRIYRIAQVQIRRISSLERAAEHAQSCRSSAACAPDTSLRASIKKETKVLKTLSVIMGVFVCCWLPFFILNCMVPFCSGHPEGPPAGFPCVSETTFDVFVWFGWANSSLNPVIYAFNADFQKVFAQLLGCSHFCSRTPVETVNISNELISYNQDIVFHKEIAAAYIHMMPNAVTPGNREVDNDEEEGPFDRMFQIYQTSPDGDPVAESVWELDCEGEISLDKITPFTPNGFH
Retinoic acid receptor gamma, sequence (P13631 whole entry): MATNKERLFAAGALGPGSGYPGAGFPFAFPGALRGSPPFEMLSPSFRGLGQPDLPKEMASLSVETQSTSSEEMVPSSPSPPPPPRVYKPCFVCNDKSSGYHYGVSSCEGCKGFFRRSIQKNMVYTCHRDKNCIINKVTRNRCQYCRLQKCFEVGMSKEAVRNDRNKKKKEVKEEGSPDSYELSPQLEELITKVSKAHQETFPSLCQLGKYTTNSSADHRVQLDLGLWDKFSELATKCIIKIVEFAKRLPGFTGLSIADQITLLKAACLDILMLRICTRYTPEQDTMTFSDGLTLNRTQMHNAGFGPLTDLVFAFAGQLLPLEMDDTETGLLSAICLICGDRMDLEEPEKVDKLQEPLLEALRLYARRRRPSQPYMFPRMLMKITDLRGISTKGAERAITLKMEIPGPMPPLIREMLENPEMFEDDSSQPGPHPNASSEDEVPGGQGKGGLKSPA

On to `CCOc1nc2cccc(C(=O)O)c2n1Cc1ccc(-c2ccccc2-c2nnn[nH]2)cc1`, for which the AC50 was over 10 µM in assay [1]; over 10 µM in [2]; over 30 µM on Androgen receptor; over 10 µM on D(1B) dopamine receptor; over 10 µM in assay [3].

`CCCc1nc2c(C)cc(-c3nc4ccccc4n3C)cc2n1Cc1ccc(-c2ccccc2C(=O)O)cc1` yielded a half-maximal activity concentration (AC50) in assay [1] of over 10 µM.

For `CCOc1cc([C@@H](CS(C)(=O)=O)N2C(=O)c3cccc(NC(C)=O)c3C2=O)ccc1OC`, in assay [4], the AC50 is over 50 µM.

At Androgen receptor, `CC=CC1=C(C(=O)O)N2C(=O)[C@@H](NC(=O)[C@H](N)c3ccc(O)cc3)[C@H]2SC1` [CEFPROZIL] came in with an AC50 of over 30 µM.

As to `Cc1nc(Nc2ncc(C(=O)Nc3c(C)cccc3Cl)s2)cc(N2CCN(CCO)CC2)n1` [DASATINIB], in assay [1], the AC50 is over 10 µM.

Consider `O=C(O)Cc1ccccc1Nc1c(Cl)cccc1Cl` [DICLOFENAC], for which the AC50 in assay [5] is 85 µM; in [1], over 10 µM; in assay [2] it was over 10 µM; on Androgen receptor, over 30 µM; on D(1B) dopamine receptor, over 10 µM; in assay [3], over 10 µM.

As to `O=C(O)Cc1ccccc1Oc1ccc(Cl)cc1Cl` [FENCLOFENAC], the AC50 on Histamine H1 receptor [6] and on Histamine H1 receptor [7] was over 30 µM in each case.

Turning to `Cc1ccc(C)c(OCCCC(C)(C)C(=O)O)c1` [GEMFIBROZIL], the AC50 at Androgen receptor was over 30 µM.

With `CCCCCCCN(CC)CCCC(O)c1ccc(NS(C)(=O)=O)cc1` (stereo not given) [IBUTILIDE], the AC50 in [4] is over 30 µM.

`CNC(=C[N+](=O)[O-])NCCSCc1csc(CN(C)C)n1` [NIZATIDINE] gave an AC50 at Androgen receptor of over 10 µM.

Consider `CN1Cc2c(N)cccc2C(c2ccccc2)C1` (stereo not given) [NOMIFENSINE], for which the AC50 at Histamine H1 receptor [6] and at Histamine H1 receptor [7] was over 30 µM throughout.

With `CN(CCOc1ccc(CC2SC(=O)NC2=O)cc1)c1ccccn1` (stereo not given) [ROSIGLITAZONE], the AC50 in assay [1] was over 10 µM.

Turning to `COc1cc(C(=O)NS(=O)(=O)c2ccccc2C)ccc1Cc1cn(C)c2ccc(NC(=O)OC3CCCC3)cc12` [ZAFIRLUKAST], the AC50 in assay [8], in [9], in [10], in [11], in assay [12] and in assay [13] was over 30 µM each time.

With `O=C1Cc2cc(CCN3CCN(c4nsc5ccccc45)CC3)c(Cl)cc2N1` [ZIPRASIDONE], the AC50 in assay [4] was over 50 µM.
